Assay results from patent US10870618B2, “Histone deacetylase inhibitors and uses thereof” (MUSC FOUNDATION FOR RESEARCH DEVELOPMENT, priority 2016, dated 2020).
Where “and” joins values, the source holds several entries; their conditions need not be identical. Equal entries are not always repeated. Entries after “also recorded” stand apart in the source; their conditions may differ.

Tests used:
MV4-11 cells [1] = test: Western blot analysis of MV4-11 cells; format: cell-based
Procedure: MV4-11 cells were cultured as described above. Cells were plated at 500 k cells/mL×3 mLs in clear, flat bottom 6 well plates. Cells were pre-incubated for 24 hours before addition of inhibitor at various concentrations. […] Cell pellets were lysed with RIPA buffer. RIPA buffer is comprised of 50 mM Tris Base, 150 mM NaCl, 5 mM EDTA, 0.1% (v/v) SDS, 0.5% (v/v) Sodium Deoxycholate, and 1% (v/v) Triton-x-100. After lysing, the suspension is ultra-sonicated and centrifuged at 15000 RPM for 15 minute at 4° C. 80 μL of supernatant was mixed with 40 μL of 15:85 (v/v) 3-mercaptoethanol:LDS solution. The mixture was heated at 90° C. for 15 minutes and stored for loading at −20° C. Prior to loading, the solution was flash thawed at 90° C. Lysates were run on Invitrogen NuPAGE 4-12% Bis-Tris 15 well gels at 170V for approximately 60 minutes in MES buffer. Gels were transferred to […] and ran at 30V for 180 minutes. Primary antibodies, purchased from Santa Cruz Biotechnology, were added in 5% (w/v) milk or 5% (w/v) Bovine Serum Albumin fraction V. The antibody was incubated with cellulose overnight at 4° C. before addition of secondary antibody in 5% (w/v) milk or 5% (w/v) Bovine Serum Albumin. Images were read using a GE ImageQuant LAS 4000. Global lighting adjustments of resulting images were made using Adobe Photoshop CC. Quantification was performed using Image Studio Lite 4.0.

[2] = Stability in artificial gastric and intestinal juice and human serum; format: in vitro ADME; conditions: over 8 hours
[3] = system: Raw246.7 macrophage cells; test: NO production in activated macrophages; format: cell-based; conditions: 100 nM, LPS and LPS+ATP
Description: Hypo-acetylation of histone H3 and H4 were also reversed with HDAC inhibitor treatments (yellow dash box). d.

[4] = In vivo PK, plasma concentration via LC-MS/MS; parameters: species or system mice
Procedure: The PK parameters were analyzed. The area under the plasma concentration versus time curve (AUC) is calculated using the linear trapezoidal method. The PK data were fitted to obtain PK parameters using the non-compartmental method.
LP-411 in vivo PK. a. Semi-log PK profiles for […] at 20 mg/kg (n=3) determined through a 24 hr period. b.

AML cell lines = test: AML / leukemia cell toxicity; format: cell-based
Procedure: MV4-11 cells were purchased from ATCC. The cells were grown according to ATCC protocol in Iscove's Modified Deulbecco's Medium with 10% Fetal Bovine Serum. Cells were grown in 37° C. environments with 5% CO2. Cells were plated at 20 k cells/well in 96-well clear U-bottom plates and pre-incubated for 24 hours. Addition of serially diluted inhibitor (in medium) was performed followed by 48 hours of additional incubation. Addition of CellTiter-Blue occurred to a final concentration of 0.125 mg/mL. The mixture was allowed to incubate until sufficient color changed occurred. Cell viability was measured as a function of resorfuin intensity using a Tecan M200 Pro spectrophotometer, 560 nm (ex.)/590 nm (em.). […] EC50's were determined using GraphPad Prism's built in “log(inhibitor) vs. normalized response—Variable slope” function.
Hek293 cells were purchased from ATCC. Cells were grown as described above. Cells were plated at 20 k cells/well in 96-well clear U-bottom plates and pre-incubated for 24 hours. […] Cell viability was measured as a function of resorufin intensity using a Tecan M200 Pro spectrophotometer, 560 nm (ex.)/590 nm (em.).
Human PBMCs were graciously donated from Dr. Nathan Dolloff s laboratory. […] Cell viability was measured as a function of resorufin intensity using a Tecan M200 Pro spectrophotometer, 560 nm (ex.)/590 nm (em.).

[5] = ESI-LCMS glucuronidation assay; format: in vitro ADME, human; conditions: 2,2,2-trifluoroacetate
Procedure: Mixed gender pooled Human Liver Microsomes (HLMs) were purchased from Xenotech, Lot#H0160. A buffer solution containing 100 mM Tris HCl buffered to a pH of 7.5 at 37° C. was used to dilute HLMs to a concentration of 250 μg/mL. To this solution was added 1 μg/mL (final) of alamethicin and 5 mM MgCl2 (final). This solution was rocked gently at 4° C. for 15 minutes to allow pore formation. 180 μL of this solution was added to 10 μL of 5 mM inhibitor+10 μL of 50 mM UDPGA in H2O or just 10 μL H2O. This solution was gently rocked at 37° C. for 12 hours before being quenched with a 47:50:3 (v/v/v) solution of water, acetonitrile and formic acid. After a 15 minute centrifugation at 15000G in 37° C. conditions, 20 μL of supernatant was directly injected into Thermo LTQ Fleet LCMS.
An Accucore RP-MS HPLC Column, 2.6 […], 30×4.6 mm was used throughout these assays. Water and methanol with 0.1% (v/v) formic acid were used as mobile phase. A gradient of 10% methanol 90% water was run isocratically for 2 minutes at […]. The gradient then changed to 100% methanol over 10 minutes before returning to 10% methanol 90% water over the next three minutes. Capillary temperature was 350° C., with a spray voltage of 5 kV.

class I HDACs = test: Class I HDAC inhibition (FIG. 7a); format: biochemical
Procedure: All Treatments are at 100 nM inhibitor concentration.

MV4-11 cells [6] = test: Pulse treatment of MV4-11 cells, cell death; format: cell-based; conditions: 2 hr treatment (200 nM), removal of inhibitor, 24 hr incubation
[7] = system: melanoma and renal cancer; test: Cell line efficacy, melanoma and renal cancer growth; format: cell-based; conditions: melanoma and renal cancer cell lines
Description: Percent growth below zero indicates the treatment has selective lethality to the cancer cells.

## CCCNNC(=O)/C=C/c1ccc(CNCCc2c(C)[nH]c3ccccc23)cc1 [LP-97, (E)-2-(2-methyl-1H-indol-3-yl)-N-(4-(3-oxo-3-(2-propylhydrazinyl)prop-1-en-1-yl)benzyl)ethan-1-aminium 2,2,2-trifluoroacetate]
MV4-11 cells [1]; 2 hr treatment (200 nM), removal of inhibitor, 24 hr incubation
  p53 level after pulse treatment: significant reduction
MV4-11 cells [1]; AML FLT3-ITD mutant cell line MV4-11
  effect on oncogenic proteins FLT3 and STAT5: degradation
[2]
  degradation in artificial gastric and intestinal juice and human serum: no appreciable degradation
[3]
  NO production, acute treatment: only inhibited LPS induced NO production but not ATP driven ones
[4]; 20 mg/Kg I.P.
  Cmax relative to panobinostat: about 5 times
[4]; in vivo, 20 mg/kg, plasma
  t1/2: 6.07 h
[4]; mouse, intraperitoneal, in vivo, 20 mg/kg, plasma
  half-life: 6.07 h
[4]; mouse, plasma, ip, 20 mg/kg I.P.
  Cmax: 559 ng/mL and 1.5 µM
AML cell lines; n=3
  toxicity against wt-p53 versus p53-null and mutants: selective toxicity
AML cell lines; wild-type p53 leukemia cell lines
  effective concentration against multiple AML cell lines: < 100 nM
[5]
  glucuronidation by human liver microsomes: resistance to glucuronidation; also recorded: resistant to glucuronidation
Class I HDACs
  HDAC inhibitor potency, class I HDACs: low-nanoM to picoM
MV4-11 cells [6]
  cell death after pulse treatment: significant AML cell death
[7]
  growth inhibition concentration: below 100 nM
  total growth inhibition concentration: 1 µM
